# Target: MK-2 (Homo sapiens, UniProt P49137)
# Experiment: Determination of MK-2 IC50 (anion exchange resin capture assay, HSP-peptide phosphorylation)
# Format: biochemical
# Details: read-out: MK-2 Avg. IC50
# Method: The phosphorylation of HSP-peptide ([sequence]) by MAPKAPK2 was measured using an anion exchange resin capture assay method. […] The reaction was terminated and [γ^33P]ATP was removed from solution by the addition of 150 μl of AG 1×8 ion exchange resin in 900 mM sodium formate pH 3.0. A 50 μl aliquot of head volume was removed from the quenched reaction mixture and added to a 96-well plate, 150 μl of Microscint-40 (Packard) was added and the amount of phosphorylated-peptide was determined. Allow the Microscint to sit in the plates for 60 minutes prior to counting.
# Compounds are evaluated as potential inhibitors of the MK2 kinase by measuring their effects on MK2 phosphorylation of the peptide substrate. Compounds may be screened initially at two concentrations prior to determination of IC50 values. Screening results are expressed as percent inhibition at the concentrations of compound tested. For IC50 value determinations, compounds are tested at six concentrations in ten-fold serial dilutions with each concentration tested in triplicate. Results are expressed as IC50 values in micromolar. The assay is performed at a final concentration of 2% DMSO.
# Compounds are evaluated as potential inhibitors of the MK-2 kinase by measuring their effects on MK-2 phosphorylation of the peptide substrate. Compounds may be screened initially at two concentrations prior to determination of IC50 values. Screening results are expressed as percent inhibition at the concentrations of compound tested. For IC50 value determinations, compounds are tested at six concentrations in ten-fold serial dilutions with each concentration tested in triplicate. Results are expressed as IC50 values in micromolar. The assay is performed at a final concentration of 2% DMSO.
# Chain of MK-2 (P49137 whole entry, species assumed): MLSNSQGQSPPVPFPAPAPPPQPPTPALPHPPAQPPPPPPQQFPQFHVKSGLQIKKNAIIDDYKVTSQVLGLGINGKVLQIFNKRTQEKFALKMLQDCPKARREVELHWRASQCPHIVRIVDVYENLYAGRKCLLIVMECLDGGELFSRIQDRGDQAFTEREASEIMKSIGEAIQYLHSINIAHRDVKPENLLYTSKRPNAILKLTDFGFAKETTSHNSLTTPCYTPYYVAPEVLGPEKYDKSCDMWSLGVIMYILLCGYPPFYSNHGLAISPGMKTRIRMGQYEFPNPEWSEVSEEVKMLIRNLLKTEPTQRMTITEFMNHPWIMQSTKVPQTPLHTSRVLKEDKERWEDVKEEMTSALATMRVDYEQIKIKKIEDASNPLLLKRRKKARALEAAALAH
structure (smiles),measurement,value
"COc1ccc(-c2cc(C(=O)O)n(CCCNC(=O)OC(C)(C)C)n2)cc1 [Example 151, 1-{3-[(tert-butoxycarbonyl)amino]propyl}-3-(4-methoxyphenyl)-1H-pyrazole-5-carboxylic acid]",IC50,155 µM

# Reference: US20040152739A1, “Acyclic pyrazole compounds for the inhibition of mitogen activated protein kinase-activated protein kinase-2” (priority 2002, published 2004)
